Data: patent US7544707B2, “Bicyclic derivatives as PPAR modulators” (Eli Lilly and Company, priority 2003, dated 2009)

Cc1cc(SC(C)c2cccc3cn(-c4ccc(C(F)(F)F)cc4)nc23)ccc1OCC(=O)O (racemic) [Example 8, (+/−)-2-Methyl-4-{1-[2-(4-trifluoromethylphenyl)-2H-indazol-7-yl]ethylsulfanyl}phenoxyacetic Acid]
melting point: 62 to 64 °C

Cc1cc(SC(C)c2cccc3cn(-c4ccc(C(F)(F)F)cc4)nc23)ccc1CCC(=O)O (racemic) [Example 9, (+/−)-3-(2-Methyl-4-{1-[2-(4-trifluoromethylphenyl)-2H-indazol-7-yl]ethylsulfanyl}phenyl)propionic Acid]
melting point: 59 to 61 °C

CCc1cc(SC(C)c2cccc3cn(-c4ccc(C(F)(F)F)cc4)nc23)ccc1OCC(=O)O (racemic) [Example 10, (+/−)-2-Ethyl-4-{1-[2-(4-trifluoromethylphenyl)-2H-indazol-7-yl]ethylsulfanyl}phenoxyacetic Acid]
melting point: 65 to 67 °C

CC(Sc1ccc2c(CC(=O)O)csc2c1)c1cccc2cn(-c3ccc(C(F)(F)F)cc3)nc12 (racemic) [Example 11, (+/−)-6-{1-[2-(4-Trifluoromethylphenyl)-2H-indazol-7-yl]ethylsulfanyl}benzo[b]thiophen-3-ylacetic Acid]
melting point: 76 to 78 °C

Cc1cc(OC(C)c2cccc3cn(-c4ccc(C(F)(F)F)cc4)nc23)ccc1CCC(=O)O (racemic) [Example 12, (+/−)-3-(2-Methyl-4{1-[2-(4-trifluoromethylphenyl)-2H-indazol-7yl]ethoxy}phenyl)propionic Acid]
melting point: 66 to 68 °C

CCc1cc(OC(C)c2cccc3cn(-c4ccc(C(F)(F)F)cc4)nc23)ccc1CCC(=O)O (racemic) [Example 13]
melting point: 61 to 63 °C

Cc1cc(OC(C)c2cccc3cn(-c4ccc(C(F)(F)F)cc4)nc23)ccc1OC(C)(C)C(=O)O (racemic) [Example 40, (+/−)-2-Methyl-2-(2-methyl-4-{1-[2-(4-trifluoromethylphenyl)-2H-indazol-7-yl]ethoxy}phenoxy)propionic Acid]
melting point: 139 to 141 °C

Cc1cc(SC(C)c2cccc3cn(-c4ccc(C(F)(F)F)cc4)nc23)ccc1OC(C)(C)C(=O)O (racemic) [Example 41, (+/−)-2-Methyl-2-(2-methyl-4-{1-[2-(4-trifluoromethylphenyl)-2H-indazol-7-yl]ethylsulfanyl}phenoxy)propionic Acid]
melting point: 140 to 142 °C

CC(Sc1ccc(OC(C)(C)C(=O)O)cc1)c1cccc2cn(-c3ccc(C(F)(F)F)cc3)nc12 (racemic) [Example 42, (+/−)-2-Methyl-2-(4-{1-[2-(4-trifluoromethylphenyl)-2H-indazol-7-yl]ethylsulfanyl}phenoxy)propionic Acid]
melting point: 150 to 152 °C

CC(Oc1ccc(SC(C)(C)C(=O)O)cc1)c1cccc2cn(-c3ccc(C(F)(F)F)cc3)nc12 (racemic) [Example 43, (+/−)-2-Methyl-2-(4-{1-[2-(4-trifluoromethylphenyl)-2H-indazol-7-yl]ethoxy}phenylsulfanyl)propionic Acid]
melting point: 158 to 160 °C

CC(Oc1ccc(OC(C)(C)C(=O)O)cc1)c1cccc2cn(-c3ccc(C(F)(F)F)cc3)nc12 (racemic) [Example 44, (+/−)-2-Methyl-2-(4-{1-[2-(4-trifluoromethylphenyl)-2H-indazol-7-yl]ethoxy}phenoxy)propionic Acid]
melting point: 130 to 132 °C

Cc1cc(OC(C)c2ccc3cn(-c4ccc(C(F)(F)F)cc4)nc3c2)ccc1OC(C)(C)C(=O)O (racemic) [Example 57, (+/−)-2-Methyl-2-(2-methyl-4-{1-[2-(4-trifluoromethylphenyl)-2H-indazol-6-yl]ethoxy}phenoxy)propionic Acid]
melting point: 156 to 158 °C

CC(Oc1ccc(OC(C)(C)C(=O)O)cc1)c1ccc2cn(-c3ccc(C(F)(F)F)cc3)nc2c1 (racemic) [Example 58, (+/−)-2-Methyl-2-(4-{1-[2-(4-trifluoromethylphenyl)-2H-indazol-6-yl]ethoxy}phenoxy)propionic Acid]
melting point: 144 to 146 °C

CC(Sc1ccc(OC(C)(C)C(=O)O)cc1)c1ccc2cn(-c3ccc(C(F)(F)F)cc3)nc2c1 (racemic) [Example 59, (+/−)-2-Methyl-2-(4-{1-[2-(4-trifluoromethylphenyl)-2H-indazol-6-yl]ethylsulfanyl}phenoxy)propionic Acid]
melting point: 130 to 132 °C

Cc1cc(SC(C)c2ccc3cn(-c4ccc(C(F)(F)F)cc4)nc3c2)ccc1OC(C)(C)C(=O)O (racemic) [Example 60, (+/−)-2-Methyl-2-(2-methyl-4-{1-[2-(4-trifluoromethylphenyl)-2H-indazol-6-yl]ethylsulfanyl}phenoxy)propionic Acid]
melting point: 114 to 116 °C

Cc1cc(OC(C)c2ccc3nn(-c4ccc(C(F)(F)F)cc4)cc3c2)ccc1OC(C)(C)C(=O)O (racemic) [Example 66, (+/−)-2-Methyl-2-(2-methyl-4-{1-[2-(4-trifluoromethylphenyl)-2H-indazol-5-yl]ethoxy}phenoxy)propionic Acid]
melting point: 129 to 131 °C

CC(Oc1ccc(SC(C)(C)C(=O)O)cc1)c1ccc2nn(-c3ccc(C(F)(F)F)cc3)cc2c1 (racemic) [Example 67, (+/−)-2-Methyl-2-(4-{1-[2-(4-trifluoromethylphenyl)-2H-indazol-5-yl]ethoxy}phenylsulfanyl)propionic Acid]
melting point: 153 to 155 °C

CC(Sc1ccc(OC(C)(C)C(=O)O)cc1)c1ccc2nn(-c3ccc(C(F)(F)F)cc3)cc2c1 (racemic) [Example 68, (+/−)-2-Methyl-2-(4-{1-[2-(4-trifluoromethylphenyl)-2H-indazol-5-yl]ethylsulfanyl}phenoxy)propionic Acid]
melting point: 109 to 111 °C

Cc1cc(SC(C)c2ccc3nn(-c4ccc(C(F)(F)F)cc4)cc3c2)ccc1OC(C)(C)C(=O)O (racemic) [Example 69, (+/−)-2-Methyl-2-(2-methyl-4-{1-[2-(4-trifluoromethylphenyl)-2H-indazol-5-yl]ethylsulfanyl}phenoxy)propionic Acid]
melting point: 70 to 72 °C

CC(Oc1ccc(OC(C)(C)C(=O)O)cc1)c1ccc2nn(-c3ccc(C(F)(F)F)cc3)cc2c1 (racemic) [Example 70, (+/−)-2-Methyl-2-(4-{1-[2-(4-trifluoromethylphenyl)-2H-indazol-5-yl]ethoxy}phenoxy)propionic Acid]
melting point: 152 to 154 °C

Cc1cc(SC(C)c2cccc3nn(-c4ccc(C(F)(F)F)cc4)cc23)ccc1OC(C)(C)C(=O)O (racemic) [Example 72, (+/−)-2-Methyl-2-(2-methyl-4-{1-[2-(4-trifluoromethylphenyl)-2H-indazol-4-yl]ethylsulfanyl}phenoxy)propionic Acid]
melting point: 153 to 155 °C

CC(Sc1ccc(OC(C)(C)C(=O)O)cc1)c1cccc2nn(-c3ccc(C(F)(F)F)cc3)cc12 (racemic) [Example 73, (+/−)-2-Methyl-2-(4-{1-[2-(4-trifluoromethylphenyl)-2H-indazol-4-yl]ethylsulfanyl}phenoxy)propionic Acid]
melting point: 148 to 150 °C

Cc1cc(OC(C)c2cccc3nn(-c4ccc(C(F)(F)F)cc4)cc23)ccc1OC(C)(C)C(=O)O (racemic) [Example 74, (+/−)-2-Methyl-2-(2-methyl-4-{1-[2-(4-trifluoromethylphenyl)-2H-indazol-4-yl]ethoxy}phenoxy)propionic Acid]
melting point: 130 to 132 °C
